Experimental findings from patent publication US11279714B2, “Anti-infective compounds” (priority 2014, dated 2022) are described below.

In brackets after ≈: the same amount, converted by molar mass. Some results are limits rather than exact numbers.

Assay [1] concerns M. tuberculosis H37Rv expressing the green fluorescent protein (H37Rv-GFP). As to the kind of experiment: microbe, parasite or virus in culture. The format is cell-based. As to conditions: Mycobacterium tuberculosis, H37RV, 120 h; read-out: QUM (MIC50).
The test system of assay [2] is Raw 264.7 cells infected with H37Rv-GFP. As to the kind of experiment: microbe, parasite or virus in culture. The format is cell-based, M. tuberculosis. To be noted: for MIC50: Mycobacterium tuberculosis, H37RV, 120 h, read-out: QIM (MIC50).

`O=C(Nc1ccc(F)cc1)c1cc2sc(NC3CCNCC3)nc2s1` [Compound 312]: the MIC50 in assay [1] and in assay [2] was > 20 µM each time.

Regarding `COc1ccc(NC(=O)c2cc3sc(N4CCCCC4)nc3s2)c(OC)c1` [Compound 286], the MIC50 in assay [2] is > 20 µM.

Turning to `O=C(Nc1ccc(-c2ccc(F)nc2)cc1)c1cc2sc(N3CCN(CCO)CC3)nc2s1` [Compound 337], the MIC50 in assay [1] and in assay [2] was < 1 µM each time.

As to `CC(C)(C)CC(=O)NC1CCN(c2nc3sc(C(=O)Nc4ccc(-c5ccc(F)nc5)cc4)cc3s2)CC1` [Compound 348], the values for the MIC50 in assay [1] and in assay [2] were > 20 µM and < 1 µM, respectively.

Consider `COCCNc1nc2sc(C(=O)Nc3ccc4oc(C)nc4c3)cc2s1` [Compound 266], for which the MIC50 in assay [1] and in assay [2] was < 1 µM each time.

In the case of `CN(CCO)c1nc2sc(C(=O)Nc3ccc(-c4nn(C)cc4Cl)cc3)cc2s1` [Compound 279], the MIC50 in assay [2] is 1 to 20 µM (≈ 0.448 to 8.96 µg/mL).

Take `Cc1nc2cc(NC(=O)c3cc4sc(N(C)CCCO)nc4s3)ccc2o1` [Compound 238]: the MIC50 in assay [1] is 1 to 20 µM (≈ 0.403 to 8.05 µg/mL); in assay [2] it was < 1 µM.

For `Cc1ccc(-c2ccc(NC(=O)c3cc4sc(N5CCC(C(=O)N(C)C)CC5)nc4s3)cc2)cn1` [Compound 204], the MIC50 in assay [1] and in assay [2] was < 1 µM each time.

For `Cc1nc2cc(NC(=O)c3cc4sc(N(C)CCN5CCOCC5)nc4s3)ccc2o1` [Compound 225], the figures for the MIC50 in assay [1] and in assay [2] were 1 to 20 µM (≈ 0.458 to 9.15 µg/mL) and < 1 µM, respectively.

For the molecule `CN(C)C(=O)C1CCN(c2nc3sc(C(=O)Nc4ccc(-c5ccc(C(F)(F)F)nc5)cc4)cc3s2)CC1` [Compound 209], the MIC50 in assay [1] and in assay [2] was < 1 µM throughout.

As for `O=C(Nc1ccc(Oc2ccc(Cl)cc2)cc1)c1cc2sc(N3CCNCC3)nc2s1` [Compound 345], the MIC50 in assay [1] was 1 to 20 µM (≈ 0.471 to 9.42 µg/mL); in assay [2], < 1 µM.

For `C#CCOc1ccc(-c2ccc(NC(=O)c3cc4sc(NCCN5CCOCC5)nc4s3)cc2)cc1` [Compound 359], the MIC50 is 1 to 20 µM (≈ 0.519 to 10.4 µg/mL) in assay [1] and < 1 µM in assay [2].

Take `Cc1nc2cc(NC(=O)c3cc4sc(N(CCO)C(C)C)nc4s3)ccc2o1` [Compound 232]: the MIC50 is 1 to 20 µM (≈ 0.417 to 8.33 µg/mL) in assay [1] and < 1 µM in assay [2].

Regarding `CN1CCCC(Nc2nc3sc(C(=O)Nc4ccc(-c5ccc(F)nc5)cc4)cc3s2)C1` (stereo not shown) [Compound 354], the MIC50 in assay [1] is 1 to 20 µM (≈ 0.468 to 9.35 µg/mL).

Take `CN1CCC(Nc2nc3sc(C(=O)Nc4ccc(F)cc4)cc3s2)CC1` [Compound 313]: the MIC50 was > 20 µM in assay [1] and 1 to 20 µM (≈ 0.391 to 7.81 µg/mL) in assay [2].

Take `Cc1nc2cc(NC(=O)c3cc4sc(N5CCN(C(=O)N(C)C)CC5)nc4s3)ccc2o1` [Compound 237]: the MIC50 in assay [1] and in assay [2] was < 1 µM in each case.

Take `CN(C)C(=O)[C@H]1CCN(c2nc3sc(C(=O)Nc4ccc(-c5ccc(F)nc5)cc4)cc3s2)C1` [Compound 298]: the MIC50 in assay [1] and in assay [2] was < 1 µM in each case.

Turning to `O=C(Nc1ccc(F)cc1)c1cc2sc(NCCCN3CCOCC3)nc2s1` [Compound 327], the MIC50 in assay [1] and in assay [2] was 1 to 20 µM (≈ 0.421 to 8.41 µg/mL) each time.

For the molecule `O=C(Nc1ccc(F)cc1)c1cc2sc(N3CCN4CCCC4C3)nc2s1` (stereo not shown) [Compound 322], the MIC50 in assay [1] lay in the range of 1 to 20 µM (≈ 0.403 to 8.05 µg/mL).

Regarding `O=C(Nc1ccc(F)cn1)c1cc2sc(N3CCNCC3)nc2s1` [Compound 342], the results for the MIC50 in assay [1] and in assay [2] were 1 to 20 µM (≈ 0.363 to 7.27 µg/mL) and < 1 µM, respectively.

`Cc1nc2cc(NC(=O)c3cc4sc(NC5CCN(C)CC5)nc4s3)ccc2o1` [Compound 356]: in assay [1], the MIC50 is > 20 µM.

Regarding `COCCN(c1nc2sc(C(=O)Nc3ccc4oc(C)nc4c3)cc2s1)C1CC1` [Compound 270], the MIC50 in assay [1] and in assay [2] was > 20 µM in each case.

On to `O=C(Nc1ccc(OCc2ccccc2)cc1)c1cc2sc(N3CCCCC3)nc2s1` [Compound 44], for which the MIC50 in assay [1] was > 20 µM; in assay [2], < 1 µM.

With `Cc1nc2cc(NC(=O)c3sc4nc(N5CCOCC5)sc4c3OCc3ccccc3)ccc2o1` [Compound 185], the MIC50 in assay [1] and in assay [2] was > 20 µM each time.

In the case of `O=C(Nc1ccc2[nH]cnc2c1)c1cc2sc(N3CCOCC3)nc2s1` [Compound 113], the MIC50 in assay [1] and in assay [2] was > 20 µM throughout.

Consider `Cc1nc2cc(NC(=O)c3cc4sc(N5CCC(NC(=O)CC(C)(C)C)CC5)nc4s3)ccc2o1` [Compound 305], for which the MIC50 is > 20 µM in assay [1] and < 1 µM in assay [2].

For the molecule `COc1ccc(NC(=O)c2cc3sc(N4CCCCC4)nc3s2)cc1OC` [Compound 285], in assay [2], the MIC50 is < 1 µM.

As for `N#Cc1ccc(NC(=O)c2cc3sc(NCCN4CCOCC4)nc3s2)cc1` [Compound 303], the MIC50 in assay [2] was > 20 µM.

Turning to `CN(C)C(=O)C1CCN(c2nc3sc(C(=O)Nc4ccc(N5CCOCC5)cc4)cc3s2)CC1` [Compound 352], the MIC50 in assay [1] is < 1 µM.

Regarding `CN(C)C(=O)C1CCN(c2nc3sc(C(=O)Nc4ccc(CN5CCOCC5)cc4)cc3s2)CC1` [Compound 353], the MIC50 in assay [1] lay in the range of 1 to 20 µM (≈ 0.514 to 10.3 µg/mL).

As to `CN(C)C(=O)C1CCN(c2nc3sc(C(=O)Nc4ccc(-c5ccc(F)cn5)cc4)cc3s2)CC1` [Compound 268], the MIC50 in assay [2] was < 1 µM.

For `CN(C)C(=O)C1CCN(c2nc3sc(C(=O)Nc4ccc(-c5ccc(F)cn5)cc4)cc3s2)CC1` [Compound 284], the MIC50 in assay [1] is < 1 µM.

Take `CN(C)C(=O)C1CCN(c2nc3sc(C(=O)Nc4ccc(-c5ccc(F)cc5)nc4)cc3s2)CC1.Cl` [Compound 259]: in assay [2], the “QIM (MIC50, uM)” value was “+++ (+++ indicates <1 uM)”.

Take `Cc1nc2cc(NC(=O)c3cc4sc(N(C)CCOc5ccccc5)nc4s3)ccc2o1` [Compound 256]: the MIC50 in assay [2] is < 1 µM.

In the case of `COCCCN(C)c1nc2sc(C(=O)Nc3ccc4oc(C)nc4c3)cc2s1` [Compound 254], the MIC50 in assay [2] is < 1 µM.

Turning to `CN(C)C(=O)C1CCN(CCNc2nc3sc(C(=O)Nc4ccc(-c5ccc(F)cn5)cc4)cc3s2)CC1` [Compound 355], the MIC50 in assay [1] is 1 to 20 µM (≈ 0.553 to 11.1 µg/mL).

In the case of `Cc1nc2cc(NC(=O)c3cc4sc(N(C)CCC(=O)N(C)C)nc4s3)ccc2o1` [Compound 264], the MIC50 in assay [2] is 1 to 20 µM (≈ 0.444 to 8.87 µg/mL).

`O=C(Nc1ccc(-c2ccc(F)cn2)cc1)c1cc2sc(NCCN3CCOCC3)nc2s1` [Compound 293]: the MIC50 in assay [2] is < 1 µM.

As for `Cc1nc2cc(NC(=O)c3cc4sc(NC5CCN(Cc6ccc(F)cc6)CC5)nc4s3)ccc2o1` [Compound 357], in assay [1], the MIC50 was in the range of 1 to 20 µM (≈ 0.522 to 10.4 µg/mL).

For the molecule `CN(C)C(=O)C1CCN(c2nc3sc(C(=O)Nc4ccc(-c5ccc(F)cc5)cn4)cc3s2)CC1.CS(=O)(=O)O` [Compound 283], the “QIM (MIC50, uM)” value in assay [2] was “+++ (+++ indicates <1 uM)”.

As for `Cc1nc2cc(NC(=O)c3cc4sc(N(C)CCOC(C)C)nc4s3)ccc2o1` [Compound 255], in assay [2], the MIC50 was > 20 µM.

Take `Cc1nc2cc(NC(=O)c3cc4sc(N(C)CCN5CCC5)nc4s3)ccc2o1` [Compound 257]: the MIC50 in assay [2] is > 20 µM.

On to `COc1ccc(NC(=O)c2cc3sc(N4CCCCC4)nc3s2)c(OC)c1OC` [Compound 300], for which the MIC50 in assay [2] was > 20 µM.

With `CN(C)C(=O)C1CCN(c2nc3sc(C(=O)Nc4ccc(-c5n[nH]cc5Cl)cc4)cc3s2)CC1` [Compound 280], in assay [2], the MIC50 was > 20 µM.

For the molecule `CN(CCO)c1nc2sc(C(=O)Nc3ccc(-c4n[nH]cc4Cl)cc3)cc2s1` [Compound 281], the MIC50 in assay [2] lay within 1 to 20 µM (≈ 0.434 to 8.68 µg/mL).

On to `Cc1nc2cc(NC(=O)c3cc4sc(N(C)CCN(C)C)nc4s3)ccc2o1` [Compound 253], for which the MIC50 in assay [2] lay in the range of 1 to 20 µM (≈ 0.416 to 8.31 µg/mL).
